From patent US5519015A, “Carbapenem antibiotic compounds” (Zeneca Limited, priority 1992, dated 1996) come the findings set out here.

Holding throughout (assay type): cell-based
The subject of one test is S. aureus Oxford. As to the kind of experiment: MIC by agar-dilution technique, Diagnostic Sensitivity Test, S. aureus Oxford. Particulars: Staphylococcus aureus, inoculum 10^4 CFU/spot. From the text: (§1) The following results were obtained for representative compounds on a standard in vitro test system using Diagnostic Sensitivity Test. The antibacterial activity is described in terms of the minimum inhibitory concentration (MIC) determined by the agar-dilution technique with an inoculum size of 10^4 CFU/spot.

Another test deals with E. coli DCO. The test is described as follows: MIC by agar-dilution technique, Diagnostic Sensitivity Test, E. coli DCO. The following applies: Escherichia coli, inoculum 10^4 CFU/spot.
Source text: as §1

In the next test the test system is P. morganii I + 001. The test is described as follows: MIC by agar-dilution technique, Diagnostic Sensitivity Test, P. morganii I + 001. The following applies: Morganella morganii, inoculum 10^4 CFU/spot.
Source text: as §1

Test [1] deals with Enterobacter cloacae P99-. The test is described as follows: MIC by agar-dilution technique, Diagnostic Sensitivity Test, Enterobacter cloacae P99-.
Source text: as §1

A further test relates to B. fragilis AMP S. As to the kind of experiment: MIC by agar-dilution technique, Diagnostic Sensitivity Test, B. fragilis AMP S. Particulars: Bacteroides fragilis, inoculum 10^4 CFU/spot.
Source text: as §1

Converted amounts (≈) assume the structure as drawn.

As for `C[C@@H](O)[C@H]1C(=O)N2C(C(=O)O)=C(S[C@@H]3CN[C@H](C(=O)Nc4csc(C(=O)O)c4)C3)[C@H](C)[C@H]12` [Example 1, (1R,5S,6S,8R,2'S,4'S)-2-(2-(2-Carboxy-4-thienylcarbamoyl)pyrrolidin-4-ylthio)-6-(1-hydroxyethyl)-1-methylcarbapenem-3-carboxylic acid], the MIC in the test with S. aureus Oxford turned out to be 125 ng/mL (≈ 0.26 µM); against E. coli DCO it was 8 ng/mL (≈ 0.0166 µM); with P. morganii I + 001, 8 ng/mL; in test [1] it was 8 ng/mL (≈ 0.0166 µM); in the test on B. fragilis AMP S it was 125 ng/mL (≈ 0.26 µM).
